Results reported in US9944608B2, “Herbicidal pyridazinone derivatives” (Syngenta Participations AG, priority 2014, dated 2018).

Key:
Assay in all cases: B1 Post-emergence efficacy, glasshouse pot test
Assay type in all cases: in vivo
Details in all cases: post-emergence application, 1000 g/ha, evaluated after 13 days
Lolium perenne (LOLPE) = system: Lolium perenne (LOLPE)
Experimental: (§1) B1 Post-Emergence Efficacy Seeds of a variety of test species are sown in standard soil in pots:—Solanum nigrum (SOLNI), Amaranthus retoflexus (AMARE), Setaria faberi (SETFA), Alopecurus myosuroides (ALOMY), Echinochloa crus-galli (ECHCG), Ipomoea hederacea (IPOHE), Lolium perenne (LOLPE). After 8 days cultivation (post-emergence) under controlled conditions in a glasshouse (at 24/16° C., day/night; 14 hours light; 65% humidity), the plants are sprayed with an aqueous spray solution derived from the formulation of the technical active ingredient in acetone/water (50:50) solution containing 0.5% Tween 20 (polyoxyethelyene sorbitan monolaurate, CAS RN 9005-64-5). Compounds are applied at 1000 g/ha. The test plants are then grown in a glasshouse under controlled conditions in a glasshouse (at 24/16° C., day/night; 14 hours light; 65% humidity) and watered twice daily. After 13 days, the test is evaluated for the percentage damage caused to the plant. The biological activities are assessed on a five point scale (5=80-100%; 4=60-79%; 3=40-59%; 2=20-39%; 1=0-19%). A blank value in the table is indicative that the compound was not tested on that species.

Solanum nigrum (SOLNI) = system: Solanum nigrum (SOLNI)
Experimental: as §1

[1] = system: Amaranthus retoflexus (AMARE)
Experimental: as §1

Setaria faberi (SETFA) = system: Setaria faberi (SETFA)
Experimental: as §1

[2] = system: Ipomoea hederacea (IPOHE)
Experimental: as §1

[3] = system: Echinochloa crus-galli (ECHCG)
Experimental: as §1

SMILES | LOLPE: percentage damage caused to the plant (five point scale) (Lolium perenne (LOLPE)) | SOLNI: percentage damage caused to the plant (five point scale) (Solanum nigrum (SOLNI)) | AMARE: percentage damage caused to the plant (five point scale) [1] | SETFA: percentage damage caused to the plant (five point scale) (Setaria faberi (SETFA)) | IPOHE: percentage damage caused to the plant (five point scale) [2] | ECHCG: percentage damage caused to the plant (five point scale) [3]
Cn1nc(C(F)(F)F)c(O)c(-c2c(F)ccc(Cl)c2OCc2ccccc2)c1=O [Compound 1.074] | 5 (5=80-100%) | 5 (5=80-100%) | 5 (5=80-100%) | 5 (5=80-100%) | 5 (5=80-100%) | 5 (5=80-100%)
CCc1nn(C)c(=O)c(-c2c(Cl)ccc(Cl)c2OCc2ccccc2)c1O [Compound 1.007] | 4 (4=60-79%) | 5 (5=80-100%) | 5 (5=80-100%) | 5 (5=80-100%) | 5 (5=80-100%) | 5 (5=80-100%)
Cn1nc([S+](C)[O-])c(O)c(-c2c(Cl)ccc(Cl)c2OCc2ccccc2)c1=O (stereo not drawn) [Compound 1.083] | 2 (2=20-39%) | 5 (5=80-100%) | 1 (1=0-19%) | 3 (3=40-59%) | 5 (5=80-100%) | 1 (1=0-19%)
Cc1nn(C2CC2)c(=O)c(-c2c(Cl)ccc(Cl)c2OCc2ccccc2)c1O [Compound 1.041] | 4 (4=60-79%) | 5 (5=80-100%) | 5 (5=80-100%) | 5 (5=80-100%) | 5 (5=80-100%) | 5 (5=80-100%)
Cn1nc(S(C)(=O)=O)c(O)c(-c2c(F)ccc(Cl)c2OCc2ccccc2)c1=O [Compound 1.079] | 1 (1=0-19%) | 5 (5=80-100%) | 1 (1=0-19%) | 1 (1=0-19%) | 5 (5=80-100%) | 1 (1=0-19%)
CN(C)c1nn(C)c(=O)c(-c2c(Cl)ccc(Cl)c2OCc2ccccc2)c1O [Compound 1.087] | 5 (5=80-100%) | 5 (5=80-100%) | 5 (5=80-100%) | 5 (5=80-100%) | 5 (5=80-100%) | 5 (5=80-100%)
Cc1nn(C)c(=O)c(-c2c(F)ccc(Cl)c2OCc2ccccc2)c1O [Compound 1.004] | 5 (5=80-100%) | 5 (5=80-100%) | 5 (5=80-100%) | 5 (5=80-100%) | 5 (5=80-100%) | 5 (5=80-100%)
CCc1nn(C)c(=O)c(-c2c(C(F)(F)F)ccc(Cl)c2OCc2ccccc2)c1O [Compound 1.072] | 2 (2=20-39%) | 5 (5=80-100%) | 2 (2=20-39%) | 5 (5=80-100%) | 5 (5=80-100%) | 4 (4=60-79%)
C#CCn1nc(C)c(O)c(-c2c(F)ccc(Cl)c2OCc2ccccc2)c1=O [Compound 1.077] | 5 (5=80-100%) | 5 (5=80-100%) | 5 (5=80-100%) | 5 (5=80-100%) | 5 (5=80-100%) | 5 (5=80-100%)
Cn1nc(N)c(O)c(-c2c(Cl)ccc(Cl)c2OCc2ccccc2)c1=O [Compound 1.081] | 2 (2=20-39%) | 5 (5=80-100%) | 3 (3=40-59%) | 4 (4=60-79%) | 4 (4=60-79%) | 2 (2=20-39%)
Cc1nn(C)c(=O)c(-c2cccc(Cl)c2OCc2ccccc2)c1O [Compound 1.003] | 5 (5=80-100%) | 5 (5=80-100%) | 4 (4=60-79%) | 3 (3=40-59%) | 5 (5=80-100%) | 5 (5=80-100%)
Cc1nn(C2CC2)c(=O)c(-c2c(F)ccc(Cl)c2OCc2ccccc2)c1O [Compound 1.044] | 5 (5=80-100%) | 5 (5=80-100%) | 5 (5=80-100%) | 5 (5=80-100%) | 5 (5=80-100%) | 5 (5=80-100%)
Cc1nn(C)c(=O)c(-c2c(Cl)ccc(Cl)c2OCc2ccc(Cl)c(Cl)c2)c1O [Compound 1.005] | 5 (5=80-100%) | 5 (5=80-100%) | 5 (5=80-100%) | 5 (5=80-100%) | 5 (5=80-100%) | 5 (5=80-100%)
